Laboratory results as given in US20130184223A1, “METHODS AND COMPOSITIONS RELATED TO MODULATING AUTOPHAGY” (UNIVERSITY OF ROCHESTER, priority 2010, published 2013).
Like-named read-outs stand apart in the source and are kept apart here.

Legend:
[1] = test system: mp53/Ras transformed cells and CAPAN-2 cells; assay: Immunocompromised mouse tumorigenicity assay, cells expressing autophagy modulators; format: in vivo; conditions: cells expressing the protein or shRNA vs vector control; 5×10^5 cells per injection; 4 weeks mp53/Ras, 5 weeks CAPAN-2
Protocol: To determine whether cooperative up-regulation of autophagy is required for tumorigenesis Atg12, a gene involved in autophagosome formation, was knocked-down using two independent constructs in mp53/RasV12 and Capan-2 cells. In addition, a genetic rescue experiment was performed by introducing a shRNA resistant form of ATG12 into these cell backgrounds to test for ATG12 specificity of the observed effects. Tumor formation was inhibited by Atg12 KD in both mp53/Ras and CAPAN-2 cell lines and was rescued by expression of the exogenous shRNA resistant Atg12 (FIG. 4.5a, 4.5c).
Cells were cultured on 15 cm dishes for two days without selective antibiotics at 39 C for mp53/Ras cells and at 37 C for HT-29, CAPAN-2, PANC-1, and 5 Panc10.05. Cells were plated at the following densities: mp53/Ras—7.5×10^5, HT-29 —1.5×10^6, CAPAN-2 —4×10^6, PANC—4×10^6, and PANC 10.05—2×10^6. Cells were trypsinized, counted and re-suspended in RPMI medium lacking supplements for mp53/Ras, CAPAN-2, and Panc10.05, and DMEM lacking supplements for HT-29 and PANC-1 at a density of 5×10^5/100 ul for mp53/Ras and CAPAN-2 cells, 1.25×10^5/100 ul for HT-29 cells, 5×10^6/100 ul for PANC-1, 2×10^6/100 ul for Panc10.05. […] Tumor volume was measured every week for 4 weeks for mp53/Ras and HT-29 cells, 5 weeks for CAPAN-2 cells, and 6 weeks for PANC-1.

[2] = test system: YAMC, mp53, Ras and mp53/Ras transformed cells; assay: Immunoblot of autophagy markers p62 and LC3 after drug treatment; format: cell-based, murine; conditions: 10 mM 3-methyladenine (3MA) for 24 hrs
Protocol: To identify if the p62 degradation and LC3 conversion is specifically due to autophagy YAMC, mp53, Ras, and mp53/Ras cells were treated with 3-methyladenine, a specific pharmacologic inhibitor of autophagosome formation (FIG. 4.3).
YAMC, vector, mp53, Ras, and mp53/Ras cells were cultured for two days at 39 C in RPMI with 10% FBS medium and gentamicin in collagen-I coated 15 cm dishes. […] Protein concentration was quantified using Bradford reagent (BioRad) and a Genesys 1 0UV spectrophotometer (Spectronic Unicam). […] Proteins were detected with primary antibodies at the following dilutions in PBST with 5% milk at 4 C overnight: HA-tagged Plac8 —1:1000 dilution of HA antibody (Roche), —Tubulin—1:1000 of—Tubulin antibody (Santa Cruz), Plac8 —1:500 of Plac8 antibody (PRF&L, Inc.), Lamp2 —1:5000 of Lamp2 antibody (Abcam), Rab7 —1:1000 Rab7 antibody (Sigma), LC3 —1:2000 of LC3B antibody (Sigma), RhoA—1:1000 RhoA antibody (Santa Cruz), Cathepsin D—1:1000 Cathepsin D antibody (Santa Cruz), p62 —1:5000 of p62 antibody (PROGEN), 3× Flag-tagged proteins—1:1000 dilution of 3× Flag antibody and 1:2500 of HRP-conjugated 3× Flag antibody (Sigma), Rab5a—1:1000 dilution of Rab5 antibody (Abcam), phosphop70S6K (Thr389)—1:1000 dilution of phospho-p70S6K (Thr389) antibody (Cell Signaling), p70S6K—1:1000 dilution of p70S6K antibody (Cell Signaling), Atg12—1:250 Atg12 antibody (Sigma). […]

[3] = test system: lymphoma, colon cancer, lung cancer, and pancreatic cancer cells; conditions: prior studies referred to in the text, cited from earlier work
[4] = test system: mp53/Ras transformed cells; assay: Lamp2/GFP-LC3 colocalization (autophagosomal/lysosomal fusion), mp53/Ras cells; format: cell-based, murine; conditions: nutrient starved in HBSS 15 minutes
Description: The Plac8 KD dependent accumulation of autophagosomes and autophagosomal biochemical markers can be due to an induction of autophagosome formation (on-rate) or inhibition in autophagosome clearance via autophagosomal/lysosomal fusion (off-rate). […] To explore if Plac8 is required for autophagosomal/lysosmal fusion a GFP-LC3 fusion protein was expressed to label autophagosomes and immunostained for Lamp2, a lysosomal marker. Co-localization of GFP-LC3 and Lamp2 indicates the formation of an autolysosome, or the completion of autophagosomal/lysosomal fusion.
Cells were plated onto collagen-1 coated 22 mm glass coverslips (BD Biosciences) in 6 well plates at 5×10^4 cells per well. […] Cells were analyzed and imaged using a Leica inverted confocal microscope (Lieca).
GFP-LC3 expressing cells were fixed, stained, mounted, and imaged by the methods described in previous section titled Immunofluorescent staining of cells. To quantify GFP-LC3 punctae images were analyzed using the ImageJ plug-in Watershed Segmentation. […] The resulting image was quantified by measuring the mean green and blue signals per image and dividing the blue signal by the total green signal to get the amount of punctae per total GFP-LC3 expressed in the cell. […] To quantify GFP-LC3 colocalization images were analyzed using the ImageJ plug-in Colocalization Finder. […]

[5] = test system: mp53/Ras transformed cells and CAPAN-2 cells; assay: Immunoblot of p62 and LC3 in cells expressing autophagy modulators; format: cell-based; conditions: cells expressing the protein vs vector control
Description: Thus, the effects of Plac8 KD on both tumor formation and autophagy can be suppressed by constitutive activation of Rab7.
Moreover, the molecular machinery employed in autophagosomal/lysosomal fusion, such as Rab7, is required for endosomal/lysosomal fusion, which is also required for tumor formation in some cancers.
To determine if the Plac8 KD-induced loss of tumor formation is specifically due to a loss of autophagy completion, Atg12, a gene required for autophagosomal formation, was overexpressed in Plac8 KD cells.
YAMC, vector, mp53, Ras, and mp53/Ras cells were cultured for two days at 39 C in RPMI with 10% FBS medium and gentamicin in collagen-I coated 15 cm dishes. HT-29, CAPAN-2, PANC-1 and Panc 10.05 cells were cultured for two days at 37 C in maintenance media without selective antibiotics on 15 cm dishes. […] Protein concentration was quantified using Bradford reagent (BioRad) and a Genesys 1 0UV spectrophotometer (Spectronic Unicam). […]

Rab7 DA: 3× Flag-tagged Rab7 Q67L dominant active mutant, activates autophagosomal/lysosomal fusion
tumor formation in nude mice [1]: inhibits tumor formation

Cn1cnc(N)c2ncnc1-2 [3-methyladenine]
p62 and LC3 protein levels [2]: p62 and LC3-I increase | p62 and LC3 protein levels ([2]; listed as 3MA): Accumulation of p62 and LC3

CO/C1=C\C(C)=C\[C@@H](C)[C@@H](O)[C@@H](C)C/C(C)=C/C=C/[C@H](OC)[C@@H]([C@@H](C)[C@@H](O)[C@H](C)[C@@]2(O)C[C@@H](O)[C@H](C)[C@@H](C(C)C)O2)OC1=O [Bafilomycin A1]
tumor formation / tumor growth [3]: inhibits tumor growth | tumor formation / tumor growth ([3]; listed as bafilomycin A1): tumor inhibitory | tumor formation / tumor growth ([3]; listed as baflomycin A1): effective at inhibiting tumor formation

Rab7 DN: 3× Flag-tagged Rab7 T22N dominant negative mutant, inhibits autophagosomal/lysosomal fusion
inhibition of GFP-LC3/Lamp2 colocalization [4]: 74% | tumor formation in nude mice [1]: inhibition of tumor formation | p62 and LC3 protein levels [5]: accumulation of p62 and LC3
